We go through 29 molecules from PubChem BioAssay (NCI).

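Grown in 96-well plates, cells were treated for 48 hours with each compound at five concentrations. Insufficient inhibition: endpoint recorded as highest concentration tested. GI50 marks 50% less growth. At the TGI there is no net growth.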

What all share (assay): inhibition of tumour cell growth, NCI panel, 48 h
Experiment [1] deals with M14 melanoma.
Experiment [2] relates to HCC-2998 colon.
The test system of experiment [3] is HL-60(TB) leukemia.
The test system of experiment [4] is SW-620 colon.
Experiment [5] relates to LOX IMVI melanoma.
For experiment [6], the system named is 786-0 renal.
In experiment [7] the test system is K-562 leukemia.
The test system of experiment [8] is COLO 205 colon.
Experiment [9] deals with DU-145 prostate.
Experiment [10] deals with MDA-MB-435.

As for `COC1(OC)C2(Cl)C(Cl)=C(Cl)C1(Cl)C1C2C2CC1(C(=O)O)c1ccccc12` (stereo unspecified), the TGI in [1] is 32 µM; in [2], 50.7 µM; in experiment [3], 43.1 µM; in experiment [4], 54.3 µM; in experiment [5] it was 32 µM; in experiment [6] it was 31.6 µM. The values for the TGI in experiment [7] and in experiment [8] were 43.2 µM and 51.1 µM, respectively.
With `COC(=O)C1=CC2C=CC(C1C(=O)OC)C1C(C(=O)OC)=C(C(=O)OC)C(C(=O)OC)=C(C(=O)OC)C21OC` (stereo unspecified), the TGI in experiment [1], in experiment [2], in [3], in [4], in [5] and in experiment [6] was > 100 µM throughout. In addition, the TGI in experiment [8] is > 100 µM.
For the molecule `Nc1ccccc1C(=O)CCC1C(=O)NC(=S)NC1=O`, the TGI in experiment [1], in experiment [9], in experiment [2], in experiment [3], in [4] and in experiment [5] was > 100 µM in each case. The TGI in experiment [6], in experiment [7] and in [8] was > 100 µM in each case.
Take `N#CC(C(=O)/C(=N\NC(N)=O)C(C#N)c1ccccc1)c1ccccc1` (stereo unspecified): the TGI in experiment [1], in experiment [2], in experiment [3], in [4], in experiment [6] and in experiment [7] was > 100 µM each time. Further, the TGI in experiment [8] is > 100 µM.
On to `NC1=NN(c2ccccc2)C(=O)C1C(=O)C(=O)Nc1ccc(Cl)c(Cl)c1` (stereo unspecified), for which the TGI in experiment [1], in experiment [2], in experiment [3], in experiment [4], in [6] and in experiment [7] was > 100 µM in each case. For the same molecule, in [8], the TGI was > 100 µM.
As to `Cc1cc(=O)n(-c2cc3cccccc-3n2)[nH]1`, the TGI is 19.6 µM in [1]; 48.7 µM in [2]; 11.6 µM in experiment [3]; 13 µM in experiment [4]; > 100 µM in [5]; 18 µM in experiment [6]. For the same molecule, the TGI in experiment [7] came out at 15.5 µM; in experiment [8] it was 43.6 µM.
In the case of `COC(=O)[C@@H]1Cc2c([nH]c3ccccc23)[C@H](c2ccccc2)N1`, the TGI in experiment [1] was 79.6 µM; in [2], 91.8 µM; in experiment [3] it was > 100 µM; in [4], > 100 µM; in experiment [5], > 100 µM; in experiment [6], > 100 µM. Moreover, the TGI in [7] is > 100 µM; in experiment [8], 38.6 µM.
For `CCOc1ccccc1N=Nc1c(-c2ccccc2)nn(C(=O)CC(=O)Nc2cccc(C)c2)c1-c1ccccc1`, the TGI in experiment [1], in experiment [2], in [3], in experiment [4], in experiment [5] and in [6] was > 100 µM in each case. The TGI in experiment [7] and in experiment [8] was > 100 µM in each case.
In the case of `COC(=O)C1C(=O)O[C@@H](c2cc(OC)c(OC)cc2OC)C1C(=O)OC` (mixture of isomers), the TGI in experiment [1], in experiment [2], in experiment [3], in experiment [4], in [5] and in experiment [6] was > 100 µM throughout. Further, the TGI in [7] and in experiment [8] was > 100 µM each time.
As to `Cc1cc2c(-c3nc4ccccn4c3N)c(O)c(O)cc2c(O)c1-c1c(C)cc2c(-c3nc4ccccn4c3N)c(O)c(O)cc2c1O`, the GI50 in experiment [1] was 1.18 µM; in [2], 1.59 µM; in experiment [3] it was 1.64 µM; in [4], 0.988 µM; in [5] it was 0.582 µM; in [6], 2.82 µM. Moreover, the GI50 is 1.02 µM in experiment [7], 1.07 µM in [8] and 0.716 µM in [10]. Also, the TGI in experiment [1], in experiment [2], in experiment [3], in experiment [4], in experiment [5] and in [6] was > 25 µM each time. In addition, the TGI in experiment [7], in [8] and in experiment [10] was > 25 µM each time.
Regarding `O=C(Nc1ccc(Cl)cc1Cl)OC(Cn1cncn1)c1ccc(Cl)cc1Cl` (stereo unspecified), the TGI is 32.1 µM in [1]; > 100 µM in [3]; 30.4 µM in [4]; 29.9 µM in experiment [5]; 33.5 µM in experiment [6]; > 100 µM in [7]. In experiment [8], this molecule came in with a TGI of 31.5 µM.
In the case of `CNS(=O)(=O)NNS(=O)(=O)c1ccc(OC)cc1`, the TGI in [1], in experiment [2], in experiment [3], in [4], in experiment [5] and in [6] was > 100 µM in each case. Also, the TGI in experiment [7] and in [8] was > 100 µM each time.
Take `C/C=C1\CN2CCc3c([nH]c4ccccc34)C2CC1CCO` (stereo unspecified): the TGI in experiment [1], in [2], in experiment [3], in experiment [4], in [5] and in [6] was > 100 µM throughout. The TGI in experiment [7] and in experiment [8] was > 100 µM in each case.
In the case of `Clc1cccc(C2N3CCCCC3[C@@H]3c4[nH]c5ccccc5c4CCN23)c1` (stereo partly specified), the TGI is 78.5 µM in experiment [1]; 99.7 µM in experiment [2]; 44.1 µM in [3]; > 100 µM in experiment [4]; > 100 µM in [6]; 65.8 µM in experiment [7].
`CC(=O)[C@H]1CCC2[C@@H]3CC=C4C[C@@H]([O-])CC[C@]4(C)C3CC[C@@]21C.CC(=O)[C@H]1CCC2[C@@H]3CC=C4C[C@@H]([O-])CC[C@]4(C)C3CC[C@@]21C.CC(=O)[CH-]C(=O)c1ccccc1.CC(=O)[CH-]C(=O)c1ccccc1.Cl.[Ti+4]` (stereo partly specified): the GI50 was 18.8 µM in experiment [1]; 33.2 µM in experiment [2]; 4.64 µM in [3]; 39 µM in experiment [4]; 29 µM in experiment [5]; 6.03 µM in [6]. In addition, the GI50 in experiment [7] is 12.7 µM; in [8], 39.3 µM. Moreover, the TGI is 46.1 µM in experiment [1]; 85.3 µM in experiment [2]; > 100 µM in experiment [3]; > 100 µM in experiment [4]; > 100 µM in experiment [5]; 17.9 µM in [6]. For the same molecule, the TGI in [7] and in [8] was > 100 µM each time.
For the molecule `O=C1C2C3CC(C4C5C=CC(C5)C34)C2C2C3CC(C12)C1C2C=CC(C2)C31` (stereo unspecified), the TGI in experiment [1] is > 100 µM; in experiment [2], > 100 µM; in experiment [3], > 100 µM; in experiment [4], 49.5 µM; in [5], > 100 µM; in experiment [6] it was > 100 µM. Besides, the TGI in experiment [7] and in [8] was > 100 µM throughout.
With `CCNC(=O)OCc1c(COC(=O)NCC)c(-c2ccc(Cl)c(Cl)c2)n2c1CCC2`, the TGI is 24.3 µM in experiment [1]; 27.7 µM in experiment [2]; 22.2 µM in [3]; 68.8 µM in experiment [4]; 33.5 µM in experiment [6]; 37.8 µM in experiment [7]. Further, in [8], the TGI amounted to 62.1 µM.
As to `Nc1c(Cl)ncnc1NCCCCCCCCCCCCNc1ncnc(Cl)c1N`, the TGI came to 57.3 µM in experiment [1]; 56.9 µM in experiment [2]; 2.12 µM in experiment [3]; 54 µM in [4]; 6.52 µM in experiment [5]; 66.1 µM in experiment [6]. Further, the TGI was > 100 µM in [7] and 21.9 µM in experiment [8].
On to `Cc1cc(C)c(-c2noc(-c3ccc(Cl)cc3)c2C2=NCCCN2)c(C)c1`, for which the TGI in experiment [1] is 6.11 µM; in experiment [2], 43.6 µM; in experiment [3], 48.7 µM; in [4], > 100 µM; in experiment [5], 37.1 µM; in [6], 26.5 µM. The TGI was 37.7 µM in experiment [7] and 35.1 µM in experiment [8].
On to `COc1ccc(S(=O)(=O)N(CC(=O)O)c2ccccc2)cc1`, for which the TGI in experiment [1], in experiment [2], in experiment [3], in experiment [4], in experiment [5] and in experiment [6] was > 100 µM throughout. The TGI in [7] and in experiment [8] was > 100 µM throughout.
For `O=C(c1ccc(Cl)cc1)c1ccc(OCCCOc2ccc(C(=O)c3ccc(Cl)cc3)cc2Cl)c(Cl)c1`, the TGI in experiment [1], in experiment [2], in [3], in experiment [4], in [5] and in experiment [6] was > 100 µM in each case. Further, the TGI in experiment [7] and in experiment [8] was > 100 µM in each case.
With `Cc1cccc(C)c1N1C(=O)C(=O)C(c2nc3ccccc3s2)/C(=N\N)C1=O` (stereo unspecified), the TGI in experiment [1], in [2], in [3], in [4], in experiment [5] and in experiment [6] was > 100 µM throughout. Further, the TGI in [7] and in experiment [8] was > 100 µM each time.
Turning to `CN(/N=C/c1ccnc2ccccc12)c1c([N+](=O)[O-])cc([N+](=O)[O-])cc1[N+](=O)[O-]`, the TGI in experiment [1] is > 100 µM; in experiment [2] it was > 100 µM; in experiment [3] it was 61.2 µM; in experiment [4], > 100 µM; in experiment [5], > 100 µM; in experiment [6], > 100 µM. The TGI in experiment [7] and in experiment [8] was > 100 µM each time.
As to `N/N=C(/Cc1nc2ccc(C(=O)c3ccccc3)cc2[nH]c1=O)C(=O)Nc1ccc([N+](=O)[O-])cc1[N+](=O)[O-]`, the GI50 in experiment [1], in experiment [2], in [5], in experiment [7] and in experiment [8] was > 100 µM each time. The TGI in experiment [1], in experiment [2], in experiment [4], in [5], in experiment [6] and in experiment [7] was > 100 µM throughout. The TGI in experiment [8] was > 100 µM.
Consider `Cc1nc2c(o1)C(=Nc1ccccc1)c1nc(C)oc1C2=Nc1ccccc1`, for which the TGI in [1] is > 100 µM; in [2], 80.3 µM; in [3], > 100 µM; in experiment [4] it was > 100 µM; in experiment [5], 60.4 µM; in experiment [6] it was 34.2 µM. Also, the TGI in experiment [7] and in experiment [8] was > 100 µM throughout.
For `COc1ccc(OC)c(/C=N/N=C(\N)NO)c1`, the TGI is 89.4 µM in [1]; > 100 µM in [3]; > 100 µM in experiment [4]; > 100 µM in [5]; > 100 µM in experiment [6]; > 100 µM in experiment [7]. The same molecule gave a TGI in experiment [8] of 66.2 µM.
As to `O=C(/C=C/c1cccc([N+](=O)[O-])c1)c1ccc([N+](=O)[O-])cc1`, the TGI in experiment [1], in experiment [2], in experiment [3], in experiment [4], in experiment [5] and in experiment [6] was > 100 µM each time. Also, the TGI in experiment [7] and in [8] was > 100 µM each time.
For the molecule `O=C(/C=C\c1cccc2ccccc12)c1ccc(Cl)cc1Cl`, the TGI in experiment [1] was 41.3 µM; in experiment [2], 92 µM; in experiment [3], 41.1 µM; in experiment [4], 34.2 µM; in experiment [6] it was 33.1 µM; in experiment [7], 38.6 µM. Besides, the TGI in [8] came to 45.5 µM.
For the molecule `O=C(Nc1ccc(Cl)c(Cl)c1)C(=O)C(C(=O)c1ccccc1-c1ccccc1)C1OC(=O)c2ccccc21` (stereo unspecified), the TGI in experiment [1] stood at 30.1 µM; in experiment [2] it was 27.6 µM; in experiment [3], 69.4 µM; in experiment [4], 42.7 µM; in [5] it was 28.9 µM; in experiment [6], 25.6 µM. Besides, the TGI is > 100 µM in experiment [7] and 30.2 µM in experiment [8].
